Laboratory results reported in patent publication US5700779A (Cortech, Inc., priority 1996, dated 1997).
“And” between values parts separate entries of the source, which are not always exact repeats. Equal entries are not always repeated. Where no end group is shown, it is not given here. [ ]: non-standard residue; d: D form. Oic = O=C(O)[C@@H]1C[C@@H]2CCCC[C@@H]2N1; Hyp = O=C(O)[C@@H]1C[C@@H](O)CN1; dTic = O=C(O)[C@H]1Cc2ccccc2CN1; 2Thi = N[C@@H](Cc1cccs1)C(=O)O

Tests used:
[1] = target: T1, bradykinin type 2 (BK2) receptors (Rattus norvegicus, UniProt P25023); assay: standard rat uterus pA2 assay (in vitro B2 antagonist activity); details: for % Recovery: recovery of agonist response after washing 40 minutes following highest antagonist concentration; for activity in rat uterus functional tissue assay: summary of Table 1; for B2 pA2 (Rat Uterus): antagonist preincubated for 15 minutes
T1 construct: Uterine horns were removed, placed under a 1 g resting tension in 4 mL tissue baths; from tissue; host or cells: rat uterine horns (Sprague-Dawley, stilbesterol-pretreated)
T1 sequence (P25023 1-396): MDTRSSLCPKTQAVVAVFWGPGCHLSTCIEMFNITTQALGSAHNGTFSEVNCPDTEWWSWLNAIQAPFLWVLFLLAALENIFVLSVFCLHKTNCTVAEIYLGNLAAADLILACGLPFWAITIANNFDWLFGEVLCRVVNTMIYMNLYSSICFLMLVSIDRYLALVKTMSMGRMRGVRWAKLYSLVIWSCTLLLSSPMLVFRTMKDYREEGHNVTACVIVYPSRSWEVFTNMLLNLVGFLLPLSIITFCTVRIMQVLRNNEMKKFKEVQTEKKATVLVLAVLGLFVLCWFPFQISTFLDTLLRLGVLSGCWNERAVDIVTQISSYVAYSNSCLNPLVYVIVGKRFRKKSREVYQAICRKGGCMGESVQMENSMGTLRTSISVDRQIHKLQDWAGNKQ
Description: The standard rat uterus pA2 assay was conducted as follows:
Female Sprague-Dawley rats (200-250 g) were pretreated with stilbesterol (100 μg/kg) and killed 18 hours later by a blow on the head and exsanguinated. Uterine horns were removed, placed under a 1 g resting tension in 4 mL tissue baths containing De Jalon's solution at 31° C. and aerated. […] Antagonist potency was calculated according to the method of Arunlakshana and Schild (Arunlakshana, O., Schild, H. O., Br. J. Pharmacology 14 48-58 (1959)). […] The difference in pD2 values compared to concurrent control reflected the "percentage recovery" of agonist response.

[2] = target: T2, bradykinin type 2 (BK2) receptors (Cavia porcellus, UniProt O70526); assay: antagonist binding to guinea pig ileum (tritium labeled bradykinin)
T2 construct: from tissue; host or cells: guinea pig ileum membrane preparation (Hartley strain)
T2 sequence (O70526 1-372): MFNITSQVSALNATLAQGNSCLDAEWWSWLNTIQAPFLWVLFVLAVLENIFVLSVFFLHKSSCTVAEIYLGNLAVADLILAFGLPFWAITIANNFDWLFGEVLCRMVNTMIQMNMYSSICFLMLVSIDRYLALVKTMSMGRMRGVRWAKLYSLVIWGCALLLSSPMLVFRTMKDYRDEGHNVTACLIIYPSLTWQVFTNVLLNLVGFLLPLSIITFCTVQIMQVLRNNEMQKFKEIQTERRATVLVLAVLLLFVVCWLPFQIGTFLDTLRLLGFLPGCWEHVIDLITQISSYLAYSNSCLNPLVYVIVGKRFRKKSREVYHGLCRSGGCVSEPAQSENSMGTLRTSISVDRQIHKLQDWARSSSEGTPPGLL
Description: Radioactivity was determined by liquid scintillation counting.

[3] = stability in porcine kidney cortical membranes; format: in vitro ADME; details: pig, pH 7.2, porcine kidney preparation
Description: (§3) Rat or porcine lung and kidney cortical membranes were prepared using differential centrifugation as described by Skidgel (Booth, A. G. et al., Biochemical Journal 142, 575-581 (1974)) for lung or by Booth (Erdos, E. G. et al., Biochemical Pharmacology 33 3471-3478 (1984)) for kidney. Membrane preparations were stored at -20° C. […] Ten microliters of this working solution were delivered into a series of Eppendorf tubes, followed by human or guinea pig plasma (90 μL) or PBS as a control blank, and incubated for various time periods. At each time point the reaction was quenched with the addition of 100 μL 1N HCl in either acetonitrile or ethanol. Samples were allowed to stand approximately fifteen minutes and were then spun at 14,000 rpm for 10 minutes. Supernatant fractions were removed, filtered through 0.22 μM filters (Millipore) and analyzed by HPLC (C18, 12-80% acetonitrile in water, both containing 0.1% trifluoroacetic acid, monitoring at 214 nm.
(§4) Porcine kidney lung preparations were diluted 1:10 with PBS; rat kidney preparations were diluted 1:100 with PBS; porcine lung preparations were diluted 1:1 in PBS. […] At various time points the reactions were quenched by the addition of 100 μL of ethanol, centrifuged and analyzed by HPLC as described above. The half-life for the disappearance of the HPLC peak was determined using the computer program ENZFIT (Elsevier).

[4] = in vitro; details: pig, lung membranes, pH 7.2
Description: as §3, §4

[5] = test system: guinea pig ileum; assay: activity on guinea pig ileum tissue
[6] = target: T3, bradykinin type 1 (BK1) receptors (Oryctolagus cuniculus, UniProt P48748); assay: rabbit aorta in vitro B1 antagonist activity; details: reversal of des-Arg9-bradykinin contraction of rabbit aorta strips
T3 construct: Spiral strips were mounted under 2 g resting tension in 5 mL tissue baths; from tissue; host or cells: rabbit thoracic aorta spiral strips (New Zealand White)
T3 sequence (P48748 1-352): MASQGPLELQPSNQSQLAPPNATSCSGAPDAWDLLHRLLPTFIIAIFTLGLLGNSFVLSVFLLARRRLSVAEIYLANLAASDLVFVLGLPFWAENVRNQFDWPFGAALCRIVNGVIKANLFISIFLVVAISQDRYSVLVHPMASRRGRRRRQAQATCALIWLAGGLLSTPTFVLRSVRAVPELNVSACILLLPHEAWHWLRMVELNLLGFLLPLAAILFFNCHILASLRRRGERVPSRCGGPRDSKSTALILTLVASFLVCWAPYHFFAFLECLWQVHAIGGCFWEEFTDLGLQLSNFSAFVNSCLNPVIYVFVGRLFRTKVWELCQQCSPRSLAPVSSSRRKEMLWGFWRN
Description: Female New Zealand White rabbits were killed by overdose of pentobarbital (80 mg/kg i.v.) and the thoracic aorta removed. […] Two concentration-effect curves for des-Arg^9 -bradykinin were constructed at 1 and 3 hours. At five hours des-Arg^9 -bradykinin was added to the bath to a final concentration of […]. This produced stable, sustained and prolonged contractions of up to 45 minutes.

[7] = target: T4, BK2 receptors (Oryctolagus cuniculus, UniProt Q28642); assay: rabbit blood pressure BK2 ED50; format: in vivo
T4 construct: from tissue; host or cells: live anesthetized New Zealand White rabbit (vascular system)
T4 sequence (Q28642 1-367): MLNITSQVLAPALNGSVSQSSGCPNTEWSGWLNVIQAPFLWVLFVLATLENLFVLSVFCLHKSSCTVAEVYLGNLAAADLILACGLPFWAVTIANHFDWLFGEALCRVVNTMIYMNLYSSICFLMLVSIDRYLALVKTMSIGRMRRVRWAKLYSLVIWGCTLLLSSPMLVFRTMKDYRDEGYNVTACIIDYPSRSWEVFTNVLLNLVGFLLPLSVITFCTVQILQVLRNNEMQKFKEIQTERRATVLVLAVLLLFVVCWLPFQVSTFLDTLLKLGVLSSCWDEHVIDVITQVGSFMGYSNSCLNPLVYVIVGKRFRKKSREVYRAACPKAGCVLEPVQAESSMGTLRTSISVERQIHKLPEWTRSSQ
Excerpt: (§1) Male New Zealand White rabbits were anesthetized with pentobarbital and femoral arteries were cannulated for the recording of blood pressure. Cannulae were placed in the femoral veins for the bolus injection or continuous infusion of compounds. […] Following an equilibration period the specific experimental procedure was started.

[8] = target: T5, BK1 receptors (Oryctolagus cuniculus, UniProt P48748); assay: LPS-treated rabbit blood pressure BK1 ED50; format: in vivo; details: for BK1 ED50: LPS-treated rabbit, i.v. infusion
T5 construct: upregulation of BK1 receptors in the vascular system; from tissue; host or cells: live anesthetized LPS-pretreated New Zealand White rabbit (vascular system)
T5 sequence (P48748 1-352): T3 sequence (P48748 1-352)
Description: as §1
Stimulation of both pre-existing BK2 and induced BK1, receptors produces hypotension. […] Both agonists were tested in the absence and then in the presence of increasing doses of CP-0597 (1, 3, and 10 μg/kg/min).

[9] = test system: blood pressure responses to vasoactive agents; assay: selectivity of intravenous CP-0597, rabbit blood pressure; format: in vivo; details: 0.1 μg/kg/min i.v.; for responses to the other vasoactive agents after antagonist: acetylcholine, norepinephrine, substance p, angiotensin, angiotensin II
Excerpt: as §1

[10] = test system: response to Bradykinin; assay: duration of action of intravenously infused CP-0597, rabbit blood pressure; format: in vivo; details: one hour (60 min) after 0.1 μg/kg/min infusion stopped
Description: as §1
CP-0597 (0.1 μg/kg/min) was intravenously infused for the above mentioned selectivity experiments.

[11] = test system: blood pressure responses to vasoactive agents; assay: selectivity of subcutaneous CP-0597, rat blood pressure; format: in vivo; details: 1.0 mg/kg s.c., thirty minutes after injection
Description: (§2) Male Sprague-Dawley rats were anesthetized with pentobarbital and femoral arteries were cannulated for the recording of blood pressure. Both femoral veins in each animal were cannulated for the administration of test compounds. […] Following an equilibration period the specific experimental procedure was started.
Animals were then treated with CP-0597 (1.0 mg/kg s.c.). Thirty minutes after the s.c. injection each vasoactive agent was retested and compared to pre-antagonist responses.

[12] = test system: response to Bradykinin; assay: duration of action of i.v. bolus injections of CP-0597, rat blood pressure; format: in vivo
Description: as §2
At 3 μg/kg the response was ca. 50% inhibited and had returned to control by 30 minutes. At […] and 30 μg/kg the response was 100% inhibited with a 50% return to control level by 60 minutes and full recovery of response by 90 minutes.

[13] = test system: response to Bradykinin; assay: duration of action of subcutaneous CP-0597, rat blood pressure; format: in vivo; details: for inhibition of responses to Bradykinin, duration of action (s.c.): rat
Description: as §2
Animals were then given subcutaneous injections of CP-0597 (1 and 3 mg/kg s.c.). […] At 1 mg/kg s.c. the responses were still 100% inhibited at 3 hours post injection. At 3 mg/kg s.c. the responses were still 100% inhibited at 5 hours post injection.

[14] = i.v. bolus 10 μg/kg (text: 20%; Table 3: 10 μg/kg/min)
[15] = i.v. bolus 30 μg/kg (Table 3: 30 μg/kg/min)

D-Arg-Arg-Pro-Hyp-Gly-Thi-Ser-D-Tic-NCpg-Arg [Compound 8]
% Recovery [1]: 56%
activity in rat uterus functional tissue assay [1]: highly potent antagonists

δ-Gpa-Pro-Hyp-Gly-Thi-Ser-D-Tic-NChg-Arg [Compound 14]
% Recovery [1]: 81%

D-Arg-Arg-Pro-Hyp-Gly-Thi-Ser-D-Tic-NPhg-Arg [Compound 15]
% Recovery [1]: 54%
activity in rat uterus functional tissue assay [1]: highly potent antagonists

[dR]RP[Hyp]GGS[dTic][Oic]R [CP-0601, reference compound]
% Recovery [1]: 75%

RPPGFSPFR [Bradykinin, Arg^1 -Pro^2 -Pro^3 -Gly^4 -Phe^5 -Ser^6 -Pro^7 -Phe^8 -Arg^9]
Ki [2]: 0.0301 nM
half-life at 100 µM [3]: 3 min
half-life at 100 µM [4]: 3 min

δ-Gpa-Arg-Pro-Hyp-Gly-Thi-Ser-D-Tic-NChg-Arg [Compound 13]
% Recovery [1]: 66%
activity in rat uterus functional tissue assay [1]: highly potent antagonists

D-Arg-Arg-Pro-Hyp-Gly-Thi-Ser-NBng-Oic [Compound 1]
% Recovery [1]: 32%

D-Arg-Arg-Pro-Hyp-Gly-Thi-Ser-NPeg-Oic-Arg [Compound 11]
B2 pA2 (Rat Uterus) [1]: Agonist
activity in rat uterus functional tissue assay [1]: agonists

D-Arg-Arg-Pro-Hyp-Gly-Thi-Ser-Igl*-NChg-Arg [Compound 4]
B2 pA2 (Rat Uterus) [1]: Agonist
activity in rat uterus functional tissue assay [1]: agonists

D-Arg-Arg-Pro-Hyp-Gly-Thi-Ser-D-Cpg-NChg-Arg [Compound 10]
% Recovery [1]: 75%

D-Arg-Arg-Pro-Hyp-Gly-Thi-Ser-D-Phe-NPhg-Arg [Compound 16]
% Recovery [1]: 60%

D-Arg-Arg-Pro-Hyp-Gly-Thi-Ser-D-Phe-NChg-Arg [Compound 9]
% Recovery [1]: 87%

D-Arg-Arg-Pro-Hyp-Gly-Thi-Ser-Igl*-NChg-Arg [Compound 3]
% Recovery [1]: 100%

D-Arg-Arg-Pro-Hyp-Gly-Thi-Ser-D-Tic-NMch-Arg [Compound 12]
B2 pA2 (Rat Uterus) [1]: Agonist
activity in rat uterus functional tissue assay [1]: agonists
activity on guinea pig ileum [5]: antagonist activity

[dR]RP[Hyp][2Thi]GS[dTic][Oic]R [CP-0589, reference compound]
% Recovery [1]: 57%

D-Arg-Arg-Pro-Hyp-Gly-Thi-Ser-D-Tic-Oic-Arg [HOE-140, reference compound]
% Recovery [1]: 41%
B1 (Rabbit Aorta) [6]: Inactive

D-Arg-Arg-Pro-Hyp-Gly-Thi-Ser-D-NBng-NChg-Arg [Compound 7]
B2 pA2 (Rat Uterus) [1]: Agonist
activity in rat uterus functional tissue assay [1]: agonists

D-Arg-Arg-Pro-Hyp-Gly-Thi-Ser-D-Tic-NChg-Arg [Compound 5]
% Recovery [1]: 71%
activity in rat uterus functional tissue assay [1]: highly potent antagonists
ED50 blocking bradykinin at BK2 receptors in live rabbits [7]: 0.051 µg/kg/min
BK2 ED50 ([7]; i.v. infusion): 29.2 pmol/kg/min
BK1 ED50 [8]: 1.7 nmol/kg/min
BK1 ED50 ([8]; des-Arg9 Bradykinin, listed as CP-0597): 2.9 ± 0.92 µg/kg/min and 2.9 µg/kg/min
BK1 blocking activity in live rabbits ([8]; rabbit): 2.9 µg/kg/min
response to Bradykinin after antagonist [9]: antagonized
responses to the other vasoactive agents after antagonist [9]: not affected
responses to the other vasoactive agents after antagonist ([9]; listed as CP-0597): unaffected
inhibition of the response to Bradykinin, duration of action (i.v. infusion) [10]: 100%
response to Bradykinin after antagonist [11]: antagonized
responses to the other vasoactive agents after antagonist ([11]; 1 mg/kg): not affected
responses to the other vasoactive agents after antagonist ([11]; listed as CP-0597, 1 mg/kg): unaffected
time of return to control (100% recovery) ([12]; i.v. bolus 3 μg/kg (Table 3: 3.0 μg/kg/min)): ≤ 30 min
inhibition of response to Bradykinin [12, 14]: 100%
time of 50% recovery [12, 14]: ≤ 60 min
time of 100% recovery [12, 14]: ≤ 90 min
inhibition of response to Bradykinin [12, 15]: 100%
time of 50% recovery [12, 15]: ≤ 60 min
time of 100% recovery [12, 15]: ≤ 90 min
inhibition of responses to Bradykinin, duration of action (s.c.) ([13]; 1 mg/kg s.c., 3 hours post injection): 100%
inhibition of responses to Bradykinin, duration of action (s.c.) ([13]; 3 mg/kg s.c., 5 hours post injection): 100%
blockage of agonist effect ([13]; up to 5 hours after a subcutaneous dose (3 mg/Kg, rat)): complete blockage

D-Arg-Arg-Pro-Hyp-Gly-Thi-Ser-D-NBng-Oic-Arg [Compound 6]
% Recovery [1]: 93%

D-Arg-Arg-Pro-Hyp-Gly-Thi-Ser-DTic-NChg [Compound 2]
% Recovery [1]: 0%

D-Arg-Arg-Hyp-Hyp-Gly-Thi-Ser-D-Tic-NChg-Arg [Compound 17]
% Recovery [1]: 60%
activity in rat uterus functional tissue assay [1]: highly potent antagonists
